From patent publication US3960667A, “Antibiotic A23187 and process for preparation thereof” (priority 1975, dated 1976)
≈ marks a conversion by molar mass, not a printed value. Counter-ions that a name gives are not always drawn.

What was measured:
[1] = system: Saccharomyces pastorianus; assay: Antibiotic activity, agar dilution; assay type: cell-based; settings: agar dilution (ad), read-out: Minimum inhibitory concentration
Excerpt: (§1) The novel antibiotic of this invention has an inhibitory action against the growth of microbial organisms, both bacteria and fungi, which are pathogenic to animal and plant life and is therefore useful in suppressing the growth of such organisms. The antibiotic A23187 is useful in wash solutions for sanitation purposes, as in the cleaning of equipment, floors or furnishings of contaminated rooms or laboratories. For such purposes, the antibiotic, or a salt thereof, is conveniently formulated as a solution in one of the lower chlorinated hydrocarbons, as for example, chloroform. […] The preparation of such formulations is readily accomplished by methods known in the art. The antibiotic can be employed in a wide range of concentrations. Because of its relatively high activity, concentratons of 100 to 500 parts per million are generally adequate for most purposes. The letters bd refer to broth dilution and the letters ad refer to agar dilution.

[2] = system: Trichophyton mentagrophytes; assay: Antibiotic activity, agar dilution; assay type: cell-based; settings: agar dilution (ad), read-out: Minimum inhibitory concentration
Excerpt: as §1

Mycobacterium avium = assay: Antibiotic activity, agar dilution; assay type: cell-based; settings: agar dilution (ad), read-out: Minimum inhibitory concentration
Excerpt: as §1

Ceratostomella ulmi = assay: Antibiotic activity, agar dilution; assay type: cell-based; settings: Ophiostoma ulmi, agar dilution (ad), read-out: Minimum inhibitory concentration
Excerpt: as §1

Penicillium expansum = assay: Antibiotic activity, agar dilution; assay type: cell-based; settings: agar dilution (ad), read-out: Minimum inhibitory concentration
Excerpt: as §1

Bacillus subtilis = assay: Antibiotic activity, agar dilution; assay type: cell-based; settings: agar dilution (ad), read-out: Minimum inhibitory concentration
Excerpt: as §1

Cladosporium resinae = assay: Antibiotic activity, agar dilution; assay type: cell-based; settings: Amorphotheca resinae, agar dilution (ad), read-out: Minimum inhibitory concentration
Excerpt: as §1

Helminthosporium sativum = assay: Antibiotic activity, agar dilution; assay type: cell-based; settings: agar dilution (ad), read-out: Minimum inhibitory concentration
Excerpt: as §1

Botrytis cinerea = assay: Antibiotic activity, agar dilution; assay type: cell-based; settings: agar dilution (ad), read-out: Minimum inhibitory concentration
Excerpt: as §1

Glomerella cingulata = assay: Antibiotic activity, agar dilution; assay type: cell-based; settings: Colletotrichum gloeosporioides, agar dilution (ad), read-out: Minimum inhibitory concentration
Excerpt: as §1

Candida albicans = assay: Antibiotic activity, agar dilution; assay type: cell-based; settings: agar dilution (ad), read-out: Minimum inhibitory concentration
Excerpt: as §1

Lactobacillus casei = assay: Antibiotic activity, agar dilution; assay type: cell-based; settings: Lacticaseibacillus casei, agar dilution (ad), read-out: Minimum inhibitory concentration
Excerpt: as §1

Colletotrichum pisi = assay: Antibiotic activity, agar dilution; assay type: cell-based; settings: agar dilution (ad), read-out: Minimum inhibitory concentration
Excerpt: as §1

Leuconostoc citrovorum = assay: Antibiotic activity, agar dilution; assay type: cell-based; settings: agar dilution (ad), read-out: Minimum inhibitory concentration
Excerpt: as §1

Pullularia sp. = assay: Antibiotic activity, agar dilution; assay type: cell-based; settings: agar dilution (ad), read-out: Minimum inhibitory concentration
Excerpt: as §1

Solubility = assay type: physicochemical
Mycoplasma gallisepticum = assay: Antibiotic activity, broth dilution; assay type: cell-based; settings: Mycoplasmoides gallisepticum, broth dilution (bd), read-out: Minimum inhibitory concentration
Excerpt: as §1

Pasteurella hemolytica = assay: Antibiotic activity, broth dilution; assay type: cell-based; settings: broth dilution (bd), read-out: Minimum inhibitory concentration
Excerpt: as §1

[3] = system: Staphylococcus aureus 1130; assay: Antibiotic activity, broth dilution; assay type: cell-based; settings: broth dilution (bd), read-out: Minimum inhibitory concentration
Excerpt: as §1

[4] = system: Streptococcus faecalis 80; assay: Antibiotic activity, broth dilution; assay type: cell-based; settings: Enterococcus faecalis, broth dilution (bd), read-out: Minimum inhibitory concentration
Excerpt: as §1

[5] = system: Staphylococcus aureus 3055; assay: Antibiotic activity, broth dilution; assay type: cell-based; settings: broth dilution (bd), read-out: Minimum inhibitory concentration
Excerpt: as §1

Erysipelas insidiosa = assay: Antibiotic activity, broth dilution; assay type: cell-based; settings: broth dilution (bd), read-out: Minimum inhibitory concentration
Excerpt: as §1

Pasteurella multocida = assay: Antibiotic activity, broth dilution; assay type: cell-based; settings: broth dilution (bd), read-out: Minimum inhibitory concentration
Excerpt: as §1

Acute toxicity in mice = settings: mouse, in vivo, ip, administered intraperitoneally
Procedure: The acute toxicity of antibiotic A23187 in mice, expressed as LD50, is about 10 mg/kg of body weight when the antibiotic is administered intraperitoneally.

[6] = Affinity for divalent cations (complex formation); assay type: binding
Excerpt: Another characteristic feature of A23187 is its ability to form complexes with certain divalent cations. In experiments to determine the affinity of A23187 for such cations, the following order of reactivity is seen: […]

Electrometric titration = assay type: physicochemical; settings: 90% dimethylsulfoxide; electrometric titration in 90 percent dimethylsulfoxide
Procedure: The molecular weight, calculated from titration data, is approximately 550. A23187 is optically active, having a specific rotation, [α]D^25, of […], at a concentration of 1% in chloroform.

CNc1ccc2oc(C[C@H]3O[C@@]4(CC[C@H]3C)O[C@H]([C@H](C)C(=O)c3ccc[nH]3)[C@H](C)C[C@H]4C)nc2c1C(=O)O [Antibiotic A23187]
MIC [1]: 1.56 µg/mL (≈ 2.98 µM)
MIC [2]: 0.78 µg/mL (≈ 1.49 µM)
MIC (Mycobacterium avium): 0.4 µg/mL (≈ 0.764 µM)
MIC (Ceratostomella ulmi): 6.25 µg/mL (≈ 11.9 µM)
MIC (Penicillium expansum): 6.25 µg/mL (≈ 11.9 µM)
MIC (Bacillus subtilis): 0.2 µg/mL (≈ 0.382 µM)
MIC (Cladosporium resinae): 6.25 µg/mL (≈ 11.9 µM)
MIC (Helminthosporium sativum): 25 µg/mL (≈ 47.7 µM)
MIC (Botrytis cinerea): 1.56 µg/mL (≈ 2.98 µM)
MIC (Glomerella cingulata): 100 µg/mL (≈ 191 µM)
MIC (Candida albicans): 25 µg/mL (≈ 47.7 µM)
MIC (Lactobacillus casei): 0.78 µg/mL (≈ 1.49 µM)
MIC (Colletotrichum pisi): 6.25 µg/mL (≈ 11.9 µM)
MIC (Leuconostoc citrovorum): 0.2 µg/mL (≈ 0.382 µM)
MIC (Pullularia sp.): 1.56 µg/mL (≈ 2.98 µM)
solubility in water (Solubility): relatively insoluble in water
MIC (Mycoplasma gallisepticum): 1.56 µg/mL (≈ 2.98 µM)
MIC (Pasteurella hemolytica): 12.5 µg/mL (≈ 23.9 µM)
MIC [3]: 0.048 µg/mL (≈ 0.0917 µM)
MIC [4]: 0.097 µg/mL (≈ 0.185 µM)
MIC [5]: 0.78 µg/mL (≈ 1.49 µM)
MIC (Erysipelas insidiosa): < 0.048 µg/mL
MIC (Pasteurella multocida): 0.39 µg/mL (≈ 0.745 µM)
LD50 (Acute toxicity in mice): ~10 mg/kg
affinity for Be^+^+ [6]: moderate affinity
affinity for Cd^+^+ [6]: appreciable affinity
affinity for Co^+^+ [6]: moderate affinity
affinity for Hg^+^+ [6]: no apparent affinity
affinity for Ni^+^+ [6]: moderate affinity
affinity for Zn^+^+ [6]: moderate affinity
order of reactivity (affinity) for divalent cations ([6]; Mn, Ca, Mg, Sr, Ba cations): Mn^+^+ >> Ca^+^+ = Mg^+^+ > Sr^+^+ > Ba^+^+
ionophorous properties, specificity ([6]; divalent cations): high specificity for divalent cations

CNc1ccc2oc(CC3OC4(CCC3C)OC(C(C)C(=O)c3ccc[nH]3)C(C)CC4C)nc2c1C(=O)O (stereo not drawn) [mixed calcium-magnesium salt of A23187]
solubility in the lower alkyl ketones (Solubility; acetone, methylethyl ketone, diethyl ketone and the like): very soluble
solubility in the lower alcohols (Solubility; methanol, ethanol, isopropanol and the like): very slightly soluble
solubility in esters formed with the lower alkyl carboxylic acids and lower alcohols (Solubility; methyl acetate, ethyl acetate, methyl propionate, amyl acetate, methyl butyrate and the like): very soluble
solubility in the lower alkyl chlorinated hydrocarbons (Solubility; methylene chloride, chloroform, dichloroethane and the like): very soluble
solubility in hydrocarbons (Solubility; pentane, hexane, heptane and the like): insoluble
solubility in water (Solubility): insoluble
pKa (Electrometric titration): 6.9
